Values of other authors in patent US20150147378A1, “COPOLYMER-XEROGEL NANOCOMPOSITES USEFUL FOR DRUG DELIVERY” (RUTGERS, THE STATE UNIVERSITY OF NEW JERSY, priority 2008, published 2015).

Compound: CO[C@H]1/C=C/O[C@@]2(C)Oc3c(C)c(O)c4c(O)c(c(/C=N/N5CCN(C)CC5)c(O)c4c3C2=O)NC(=O)/C(C)=C\C=C\[C@H](C)[C@H](O)[C@@H](C)[C@@H](O)[C@@H](C)[C@H](OC(C)=O)[C@@H]1C [rifampicin]
- octanol/water partition coefficient, log P: 2.72
